According to US20230049952A1, “METHODS AND COMPOUNDS FOR RESTORING MUTANT P53 FUNCTION” (PMV Pharmaceuticals, Inc., priority 2020, published 2023):

Test system: NF-κB signaling pathway in MT373 tumors
Test: MT373 syngeneic sarcoma model: mouse NF-κB signaling pathway profiling panel
Assay type: in vivo

Structure (SMILES): CCn1c(C#CCNc2ccccc2)cc2cc(CNC3CCN(C)CC3)ccc21 [Compound 1, 1-Anilino-3-{1-ethyl-5-[(1-methyl-4-piperidylamino)methyl]-1H-indol-2-yl}-2-propyne]
- Bcl2a1a fold increase over or percent reduction vs vehicle control (150 mg/kg BIDx1, 48 h): 67.64 ± 10.73 fold or %
- Bcl2l1 fold increase over or percent reduction vs vehicle control (150 mg/kg BIDx1, 48 h): 7.49 ± 1.18 fold or %
- Bcl3 fold increase over or percent reduction vs vehicle control (150 mg/kg BIDx1, 48 h): 1.35 ± 0.16 fold or %
- Bcl10 fold increase over or percent reduction vs vehicle control (150 mg/kg BIDx1, 48 h): 36.06 ± 3.54 fold or %
- Birc3 fold increase over or percent reduction vs vehicle control (150 mg/kg BIDx1, 48 h): 1.20 ± 0.28 fold or %
- Card10 fold increase over or percent reduction vs vehicle control (150 mg/kg BIDx1, 48 h): 1.20 ± 0.11 fold or %
- Card11 fold increase over or percent reduction vs vehicle control (150 mg/kg BIDx1, 48 h): 1.67 ± 0.42 fold or %
- Casp1 fold increase over or percent reduction vs vehicle control (150 mg/kg BIDx1, 48 h): 10.29 ± 10.66 fold or %
- Casp8 fold increase over or percent reduction vs vehicle control (150 mg/kg BIDx1, 48 h): 1.02 ± 0.01 fold or %
- Ccl2 fold increase over or percent reduction vs vehicle control (150 mg/kg BIDx1, 48 h): 67.28 ± 5.26 fold or %
- Ccl5 fold increase over or percent reduction vs vehicle control (150 mg/kg BIDx1, 48 h): 8.18 ± 19.38 fold or %
- Cd27 fold increase over or percent reduction vs vehicle control (150 mg/kg BIDx1, 48 h): 1.46 ± 0.26 fold or %
- Cd40 fold increase over or percent reduction vs vehicle control (150 mg/kg BIDx1, 48 h): 39.20 ± 14.39 fold or %
- Cflar fold increase over or percent reduction vs vehicle control (150 mg/kg BIDx1, 48 h): 7.92 ± 8.21 fold or %
- Chuk fold increase over or percent reduction vs vehicle control (150 mg/kg BIDx1, 48 h): 4.04 ± 12.31 fold or %
- Crebbp fold increase over or percent reduction vs vehicle control (150 mg/kg BIDx1, 48 h): 1.12 ± 0.05 fold or %
- Csf1 fold increase over or percent reduction vs vehicle control (150 mg/kg BIDx1, 48 h): 11.36 ± 7.30 fold or %
- Csf2 fold increase over or percent reduction vs vehicle control (150 mg/kg BIDx1, 48 h): 62.24 ± 8.70 fold or %
- Csf3 fold increase over or percent reduction vs vehicle control (150 mg/kg BIDx1, 48 h): 0.37 ± 11.46 fold or %
- Egfr fold increase over or percent reduction vs vehicle control (150 mg/kg BIDx1, 48 h): 24.42 ± 4.76 fold or %
- Egr1 fold increase over or percent reduction vs vehicle control (150 mg/kg BIDx1, 48 h): 42.64 ± 12.12 fold or %
- Eif2ak2 fold increase over or percent reduction vs vehicle control (150 mg/kg BIDx1, 48 h): 1.01 ± 0.03 fold or %
- Elk1 fold increase over or percent reduction vs vehicle control (150 mg/kg BIDx1, 48 h): 11.87 ± 8.21 fold or %
- F2r fold increase over or percent reduction vs vehicle control (150 mg/kg BIDx1, 48 h): 19.79 ± 4.23 fold or %
- Fadd fold increase over or percent reduction vs vehicle control (150 mg/kg BIDx1, 48 h): 7.23 ± 4.56 fold or %
- Fasl fold increase over or percent reduction vs vehicle control (150 mg/kg BIDx1, 48 h): 5.96 ± 19.38 fold or %
- Fos fold increase over or percent reduction vs vehicle control (150 mg/kg BIDx1, 48 h): 47.30 ± 7.08 fold or %
- Hmox1 fold increase over or percent reduction vs vehicle control (150 mg/kg BIDx1, 48 h): 27.03 ± 7.50 fold or %
- Icam1 fold increase over or percent reduction vs vehicle control (150 mg/kg BIDx1, 48 h): 3.83 ± 17.26 fold or %
- Ifng fold increase over or percent reduction vs vehicle control (150 mg/kg BIDx1, 48 h): 43.46 ± 15.02 fold or %
- Ikbkb fold increase over or percent reduction vs vehicle control (150 mg/kg BIDx1, 48 h): 1.24 ± 0.09 fold or %
- Ikbke fold increase over or percent reduction vs vehicle control (150 mg/kg BIDx1, 48 h): 1.71 ± 28.42 fold or %
- Ikbkg fold increase over or percent reduction vs vehicle control (150 mg/kg BIDx1, 48 h): 3.73 ± 5.88 fold or %
- Il1a fold increase over or percent reduction vs vehicle control (150 mg/kg BIDx1, 48 h): 28.88 ± 7.08 fold or %
- Il1b fold increase over or percent reduction vs vehicle control (150 mg/kg BIDx1, 48 h): 18.73 ± 5.15 fold or %
- Il1r1 fold increase over or percent reduction vs vehicle control (150 mg/kg BIDx1, 48 h): 22.37 ± 5.01 fold or %
- Il10 fold increase over or percent reduction vs vehicle control (150 mg/kg BIDx1, 48 h): 1.15 ± 0.09 fold or %
- Irak1 fold increase over or percent reduction vs vehicle control (150 mg/kg BIDx1, 48 h): 1.00 ± 2.36 fold or %
- Irak2 fold increase over or percent reduction vs vehicle control (150 mg/kg BIDx1, 48 h): 17.08 ± 1.54 fold or %
- Irf1 fold increase over or percent reduction vs vehicle control (150 mg/kg BIDx1, 48 h): 7.15 ± 7.58 fold or %
- Jun fold increase over or percent reduction vs vehicle control (150 mg/kg BIDx1, 48 h): 44.92 ± 3.26 fold or %
- Lta fold increase over or percent reduction vs vehicle control (150 mg/kg BIDx1, 48 h): 57.16 ± 12.86 fold or %
- Ltbr fold increase over or percent reduction vs vehicle control (150 mg/kg BIDx1, 48 h): 13.21 ± 2.85 fold or %
- Map3k1 fold increase over or percent reduction vs vehicle control (150 mg/kg BIDx1, 48 h): 1.74 ± 0.24 fold or %
- Mapk3 fold increase over or percent reduction vs vehicle control (150 mg/kg BIDx1, 48 h): 3.13 ± 7.94 fold or %
- Myd88 fold increase over or percent reduction vs vehicle control (150 mg/kg BIDx1, 48 h): 1.17 ± 0.06 fold or %
- Nfkb1 fold increase over or percent reduction vs vehicle control (150 mg/kg BIDx1, 48 h): 1.04 ± 0.04 fold or %
- Nfkb2 fold increase over or percent reduction vs vehicle control (150 mg/kg BIDx1, 48 h): 1.17 ± 0.11 fold or %
- Nfkbia fold increase over or percent reduction vs vehicle control (150 mg/kg BIDx1, 48 h): 1.14 ± 0.15 fold or %
- Nod1 fold increase over or percent reduction vs vehicle control (150 mg/kg BIDx1, 48 h): 1.49 ± 0.08 fold or %
- Raf1 fold increase over or percent reduction vs vehicle control (150 mg/kg BIDx1, 48 h): 0.48 ± 5.31 fold or %
- Rel fold increase over or percent reduction vs vehicle control (150 mg/kg BIDx1, 48 h): 1.30 ± 0.16 fold or %
- Rela fold increase over or percent reduction vs vehicle control (150 mg/kg BIDx1, 48 h): 1.07 ± 0.01 fold or %
- Relb fold increase over or percent reduction vs vehicle control (150 mg/kg BIDx1, 48 h): 1.09 ± 0.07 fold or %
- Ripk1 fold increase over or percent reduction vs vehicle control (150 mg/kg BIDx1, 48 h): 1.19 ± 0.07 fold or %
- Ripk2 fold increase over or percent reduction vs vehicle control (150 mg/kg BIDx1, 48 h): 24.29 ± 6.23 fold or %
- Slc20a1 fold increase over or percent reduction vs vehicle control (150 mg/kg BIDx1, 48 h): 40.28 ± 6.82 fold or %
- Smad3 fold increase over or percent reduction vs vehicle control (150 mg/kg BIDx1, 48 h): 1.04 ± 0.08 fold or %
- Stat1 fold increase over or percent reduction vs vehicle control (150 mg/kg BIDx1, 48 h): 1.36 ± 0.15 fold or %
- Tbk1 fold increase over or percent reduction vs vehicle control (150 mg/kg BIDx1, 48 h): 1.01 ± 6.05 fold or %
- Tlr1 fold increase over or percent reduction vs vehicle control (150 mg/kg BIDx1, 48 h): 1.63 ± 0.28 fold or %
- Tlr2 fold increase over or percent reduction vs vehicle control (150 mg/kg BIDx1, 48 h): 1.24 ± 0.15 fold or %
- Tlr3 fold increase over or percent reduction vs vehicle control (150 mg/kg BIDx1, 48 h): 1.00 ± 1.44 fold or %
- Tlr4 fold increase over or percent reduction vs vehicle control (150 mg/kg BIDx1, 48 h): 6.31 ± 9.66 fold or %
- Tlr6 fold increase over or percent reduction vs vehicle control (150 mg/kg BIDx1, 48 h): 1.33 ± 0.08 fold or %
- Tlr9 fold increase over or percent reduction vs vehicle control (150 mg/kg BIDx1, 48 h): 1.92 ± 0.29 fold or %
- Tnf fold increase over or percent reduction vs vehicle control (150 mg/kg BIDx1, 48 h): 56.86 ± 13.49 fold or %
- Tnfaip3 fold increase over or percent reduction vs vehicle control (150 mg/kg BIDx1, 48 h): 1.26 ± 0.33 fold or %
- Tnfrsf1a fold increase over or percent reduction vs vehicle control (150 mg/kg BIDx1, 48 h): 1.35 ± 0.08 fold or %
- Tnfrsf1b fold increase over or percent reduction vs vehicle control (150 mg/kg BIDx1, 48 h): 1.66 ± 0.08 fold or %
- Tnfrsf10b fold increase over or percent reduction vs vehicle control (150 mg/kg BIDx1, 48 h): 11.34 ± 5.36 fold or %
- Tnfsf10 fold increase over or percent reduction vs vehicle control (150 mg/kg BIDx1, 48 h): 16.58 ± 3.82 fold or %
- Tnfsf14 fold increase over or percent reduction vs vehicle control (150 mg/kg BIDx1, 48 h): 1.53 ± 0.40 fold or %
- Tollip fold increase over or percent reduction vs vehicle control (150 mg/kg BIDx1, 48 h): 2.45 ± 1.53 fold or %
- Tradd fold increase over or percent reduction vs vehicle control (150 mg/kg BIDx1, 48 h): 1.01 ± 0.06 fold or %
- Traf2 fold increase over or percent reduction vs vehicle control (150 mg/kg BIDx1, 48 h): 7.23 ± 7.66 fold or %
- Traf3 fold increase over or percent reduction vs vehicle control (150 mg/kg BIDx1, 48 h): 13.20 ± 10.35 fold or %
- Traf5 fold increase over or percent reduction vs vehicle control (150 mg/kg BIDx1, 48 h): 2.99 ± 3.31 fold or %
- Traf6 fold increase over or percent reduction vs vehicle control (150 mg/kg BIDx1, 48 h): 1.07 ± 0.12 fold or %
- Zap70 fold increase over or percent reduction vs vehicle control (150 mg/kg BIDx1, 48 h): 1.45 ± 0.41 fold or %
- Agt fold increase over or percent reduction vs vehicle control (150 mg/kg BIDx1, 72 h): 2.05 ± 0.66 fold or %
- Akt1 fold increase over or percent reduction vs vehicle control (150 mg/kg BIDx1, 72 h): 1.06 ± 0.07 fold or %
- Atf1 fold increase over or percent reduction vs vehicle control (150 mg/kg BIDx1, 72 h): 34.00 ± 7.86 fold or %
- Atf2 fold increase over or percent reduction vs vehicle control (150 mg/kg BIDx1, 72 h): 8.53 ± 13.61 fold or %
- Bcl2a1a fold increase over or percent reduction vs vehicle control (150 mg/kg BIDx1, 72 h): 48.45 ± 28.65 fold or %
- Bcl2l1 fold increase over or percent reduction vs vehicle control (150 mg/kg BIDx1, 72 h): 1.06 ± 0.18 fold or %
- Bcl3 fold increase over or percent reduction vs vehicle control (150 mg/kg BIDx1, 72 h): 1.22 ± 0.24 fold or %
- Bcl10 fold increase over or percent reduction vs vehicle control (150 mg/kg BIDx1, 72 h): 23.25 ± 7.71 fold or %
- Birc3 fold increase over or percent reduction vs vehicle control (150 mg/kg BIDx1, 72 h): 1.13 ± 0.28 fold or %
